Assays:
UGT2B15 = biological target: T1, UGT2B15 (Homo sapiens, UniProt P54855); assay: Inhibition of recombinant UGT-catalyzed 4-MU glucuronidation; type: biochemical; conditions: pH 7.4, probe 4-methylumbelliferone (4-MU), 250 μM, 100 μM compound, 4-MU probe substrate, negative = activation
T1 construct: purchased BD Gentest Corp. (Woburn, MA, USA); host or cells: baculovirus-infected insect cells
T1 sequence (P54855 24-530): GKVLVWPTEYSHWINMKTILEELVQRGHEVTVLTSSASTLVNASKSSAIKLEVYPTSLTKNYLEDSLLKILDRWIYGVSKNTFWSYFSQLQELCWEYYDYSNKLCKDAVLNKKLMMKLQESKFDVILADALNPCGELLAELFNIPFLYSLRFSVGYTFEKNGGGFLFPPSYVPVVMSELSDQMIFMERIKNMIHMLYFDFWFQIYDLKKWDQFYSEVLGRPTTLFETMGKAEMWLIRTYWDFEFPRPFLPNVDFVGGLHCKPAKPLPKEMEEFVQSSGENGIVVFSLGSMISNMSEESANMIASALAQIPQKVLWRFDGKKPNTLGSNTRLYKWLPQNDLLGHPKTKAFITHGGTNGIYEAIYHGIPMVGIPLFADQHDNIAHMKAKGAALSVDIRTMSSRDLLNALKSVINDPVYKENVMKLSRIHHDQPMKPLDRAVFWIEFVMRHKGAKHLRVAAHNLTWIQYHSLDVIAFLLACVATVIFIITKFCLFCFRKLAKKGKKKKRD

UGT1A6 = biological target: T2, UGT1A6 (Homo sapiens, UniProt P19224); assay: as above; type: biochemical; conditions: pH 7.4, probe 4-methylumbelliferone (4-MU), 110 μM, 100 μM compound, 4-MU probe substrate, negative = activation
T2 construct: purchased BD Gentest Corp. (Woburn, MA, USA); host or cells: baculovirus-infected insect cells
T2 sequence (P19224 27-532): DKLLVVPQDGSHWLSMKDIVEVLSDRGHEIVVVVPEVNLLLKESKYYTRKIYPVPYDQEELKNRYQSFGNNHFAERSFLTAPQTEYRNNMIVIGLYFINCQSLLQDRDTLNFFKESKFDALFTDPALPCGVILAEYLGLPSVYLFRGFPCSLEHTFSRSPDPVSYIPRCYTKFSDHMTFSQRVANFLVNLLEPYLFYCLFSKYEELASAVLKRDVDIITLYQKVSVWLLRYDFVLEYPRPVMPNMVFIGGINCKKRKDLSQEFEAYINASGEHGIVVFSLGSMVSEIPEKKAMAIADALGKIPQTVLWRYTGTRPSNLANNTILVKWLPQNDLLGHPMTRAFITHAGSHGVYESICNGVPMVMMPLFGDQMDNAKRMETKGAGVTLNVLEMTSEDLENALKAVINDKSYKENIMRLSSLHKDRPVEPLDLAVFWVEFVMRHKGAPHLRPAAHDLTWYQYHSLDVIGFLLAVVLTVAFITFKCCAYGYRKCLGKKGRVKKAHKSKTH

inhibition at 120 min, 100 µM (UGT2B15) | inhibition at 30 min, 100 µM (UGT1A6) | Compound
8.9% | 11.2% | O=c1c2cc(O)c(O)cc2oc2cc(O)c([C@@H]3O[C@H](CO)[C@@H](O)[C@H](O)[C@H]3O)c(O)c12 [MGF, 1,3,6,7-tetrahydroxyxanthone-C-2-β-D-glucoside]
46.3% | 46.2% | O=c1c2cc(O)c(O)cc2oc2cc(O)cc(O)c12 [NTR, 1,3,6,7-tetrahydroxyxanthone]

— article PMC6152678, “In Vitro Comparative Study of the Inhibitory Effects of Mangiferin and Its Aglycone Norathyriol towards UDP-Glucuronosyl Transferase (UGT) Isoforms” (Molecules : A Journal of Synthetic Chemistry and Natural …, 2017)
